According to PubChem BioAssay AID434987 (Southern Research Specialized Biocontainment Screening …, 2010):
The source made the active and inactive calls. The rule behind the calls is not given here.

Test system: M. tuberculosis H37Rv growth inhibition with meropenem
Assay: dose response, H37Rv, with and without meropenem (AID 434987);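 note: growth over 7 days at 37 °C before Alamar Blue read on day 9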
[1] = M. tuberculosis H37Rv growth inhibition, measured here: IC50 without meropenem
[2] = M. tuberculosis H37Rv growth inhibition, measured here: IC90 without meropenem
[3] = measured here: IC90 with meropenem

| Structure (SMILES) | IC50 | IC50 [1] [µM] | IC90 [2] [µM] | IC90 [3] [µM] |
| --- | --- | --- | --- | --- |
| COc1cc(NC(=O)c2ccccc2)c(OC)cc1NC(=O)CN1CCOCC1 | 14.5 µM (inactive) | 32.1 | > 100 | 69.2 |
| CCN1C(=O)C(=Cc2ccc(N3CCOCC3)o2)C(=O)N(CC)C1=S | > 100 µM (inactive) | > 100 | > 100 | > 100 |
| COc1ccccc1C(=O)Nc1sc2c(c1C(=O)NCc1ccco1)CCCC2 | > 100 µM (inactive) | > 100 | > 100 | > 100 |
| FC(F)Oc1ccccc1C1CC(c2ccc(Br)s2)Nc2ncnn21 (stereo unspecified) | > 100 µM (inactive) | > 100 | > 100 | > 100 |
| O=C(Nc1ccc(Cl)cc1Cl)C1=Cc2ccccc2OC1 | > 100 µM (inactive) | > 100 | > 100 | > 100 |
| Cn1nc(-c2ccc(OCC(=O)NCC3CCCO3)cc2)c2ccccc2c1=O (stereo unspecified) | > 100 µM (inactive) | > 100 | > 100 | > 100 |
| CCNC(=O)CCn1nc(-c2ccc(Cl)cc2)c2ccccc2c1=O | 23.6 µM | > 100 | > 100 | > 100 |
| CCOC(=O)c1cc(-c2ccccc2)sc1NC(=O)C(C)N1C(=O)NC(C)(c2ccc(Cl)cc2)C1=O (stereo unspecified) | > 100 µM (inactive) | > 100 | > 100 | > 100 |
| Cc1cc(/C=N/NC(=O)CC#N)c(C)n1-c1ccc([N+](=O)[O-])cc1 | 10.2 µM | > 100 | > 100 | > 100 |
| CCOc1ccc(-c2cnc3n2CCC3)cc1 | 35 µM | > 100 | > 100 | > 100 |
| Cc1ccc(CSc2nccc(-c3c(C)nc4ccccn34)n2)cc1 | 7.91 µM | 22.2 | > 100 | > 100 |
| Cc1cc(C)c(C)c(S(=O)(=O)N2C(=S)NC(=O)C2C(C)C)c1C (stereo unspecified) | 10.1 µM | 38.5 | > 100 | > 100 |
| COC(=O)c1c(NC(=O)C2c3ccccc3Oc3ccccc32)sc(C)c1C | > 100 µM (inactive) | > 100 | > 100 | > 100 |
| S=C(Nc1ccccc1)Nc1ccc(Cl)cn1 | 4.68 µM | 90.6 | > 100 | > 100 |
| CN(Cc1ccccc1)C(=S)NC(=O)c1ccc(-c2ccccc2)cc1 | 7.23 µM | 24.2 | > 100 | > 100 |
| COc1ccc([N+](=O)[O-])cc1C1NN=C(c2ccccc2O)S1 (stereo unspecified) | > 100 µM (inactive) | > 100 | > 100 | > 100 |
| COc1cccc(NC(=O)C(=O)c2cn(CC(=O)N3CCOCC3)c3ccccc23)c1 | > 100 µM (inactive) | > 100 | > 100 | > 100 |
| CC1CCN(C(=S)NC(=O)c2ccccc2)CC1 | 12 µM | 40.7 | 77.6 | 13.6 |
| COc1ccc(OC)c(NC(=O)CSC2=C(C#N)C(c3ccco3)C3=C(CCCC3=O)N2)c1 (stereo unspecified) | 70.4 µM (inactive) | 94.2 | > 100 | > 100 |
| CCCC(C)NC(=O)c1ccc(OCc2ccc(Cl)cc2)c(OC)c1 (stereo unspecified) | 7.56 µM | 36.2 | > 100 | 11.6 |

| Structure (SMILES) | IC50 | IC50 [1] [µM] | IC90 [2] [µM] | IC90 [3] [µM] |
| --- | --- | --- | --- | --- |
| Cc1cc2c(N=NC(=O)C3CC3c3ccccc3)c(O)[nH]c2cc1Br (stereo unspecified) | > 100 µM (inactive) | > 100 | > 100 | > 100 |
| S=C(Nc1ccc(Cl)cc1)c1nc2ccccc2s1 | 43.2 µM (inactive) | > 100 | > 100 | > 100 |
| CCC(=O)Nc1cc(OC)c(NC(=O)c2ccccc2)cc1OC | 22.7 µM | 93.4 | > 100 | > 100 |
| C/C(=N/NC(=O)c1ccccn1)c1ccncc1 | 9.52 µM | 31.8 | > 100 | 23.1 |
| CCc1nc2scc(-c3cccs3)c2c(=O)o1 | > 100 µM (inactive) | > 100 | > 100 | > 100 |
| O=C(NC1CCCCC1)C1CCN(c2nccs2)CC1 | 40.2 µM | > 100 | > 100 | > 100 |
| CCOC(=O)c1ccc(N2CN(CCc3ccccc3)CNC2=S)cc1 | 26.9 µM | 91.5 | > 100 | > 100 |
| COCCSc1nc2sc3c(c2c(=O)n1-c1ccccc1)CCN(C)C3 | 38.1 µM (inactive) | 41.9 | 54.3 | 53.3 |
| CCn1c(O)c(/C=N/NC(=O)c2ccccc2)c(=O)n(CC)c1=S | 16.2 µM | > 100 | > 100 | > 100 |
| COc1cc(C(=O)Nc2cccc(-c3cn4cccnc4n3)c2)cc(OC)c1OC | 10.9 µM | 35 | > 100 | 30.2 |
| Cc1cc(C(=O)Nc2nnc(-c3ccccc3)s2)no1 | 45.1 µM (inactive) | 48.4 | > 100 | > 100 |
| Cc1ccc(-n2ncc3c(=O)n(CC#N)cnc32)cc1C | 20.9 µM | 51.3 | > 100 | > 100 |
| O=[N+]([O-])c1cc(Cl)cc(/C=N/NC(=S)Nc2cc(S(=O)(=O)N3CCOCC3)ccc2Cl)c1O | 6.3 µM | 18.2 | 30.5 | 29.3 |
| Nc1c(C(=O)N2CCCC2)sc2nc3c(cc12)CCCCCC3 | 19.4 µM | 92.2 | > 100 | > 100 |
| COc1ccc(OC)c(-c2cc(C(=O)Nc3c(C)n(C)n(-c4ccccc4)c3=O)no2)c1 | 17.1 µM | 54 | > 100 | 49.5 |
| CCOc1ccc(S(=O)(=O)n2nnc3ccccc32)cc1C(C)C | > 100 µM (inactive) | > 100 | > 100 | > 100 |
| COc1ccc([N+](=O)[O-])cc1NS(=O)(=O)c1ccc(Cl)c(C(=O)Nc2sc3c(c2C#N)CCCCC3)c1 | > 100 µM (inactive) | > 100 | > 100 | > 100 |
| CCn1c(=O)c2cc(C(=O)N(C)c3ccccc3F)sc2c2ccccc21 | 29.2 µM | > 100 | > 100 | > 100 |
| O=C(N/N=C/c1ccc2c(c1)OCO2)c1sc2cc(Cl)ccc2c1Cl | > 100 µM (inactive) | > 100 | > 100 | > 100 |
| COc1ccc2cc(C3=CCCCC3)ncc2c1 | 74.8 µM (inactive) | > 100 | > 100 | > 100 |

| Structure (SMILES) | IC50 | IC50 [1] [µM] | IC90 [2] [µM] | IC90 [3] [µM] |
| --- | --- | --- | --- | --- |
| COc1ccc(C2CC(c3c(-c4ccccc4)c4cc(Cl)ccc4[nH]c3=O)=NN2S(C)(=O)=O)cc1 (stereo unspecified) | > 100 µM (inactive) | > 100 | > 100 | > 100 |
| CCOc1cc(N2CCOCC2)c(OCC)cc1NC(=O)c1cc(C)cc(C)c1 | 23.7 µM | > 100 | > 100 | > 100 |
| CCOc1cc(C(=O)N2CCC(CC3CC(c4ccccc4)=NO3)(C(=O)NCc3ccc(OC)cc3)CC2)cc(OCC)c1OCC (stereo unspecified) | > 100 µM (inactive) | > 100 | > 100 | > 100 |
| COc1cc(NC(=O)c2cccc(Cl)c2)c(OC)cc1NC(=O)CN1CCCCC1 | 7.42 µM | 23.7 | 61.4 | 75.5 |
| O=C(CCN1C(=O)c2ccccc2S1(=O)=O)Nc1ccc(Cl)cc1 | > 100 µM (inactive) | > 100 | > 100 | > 100 |
| Clc1ccc(CSc2ccc(-c3cccnc3)nn2)cc1 | 40.1 µM | > 100 | > 100 | > 100 |
| COc1cc(NC(=O)c2ccc(Cl)cc2)c(OC)cc1NC(=O)CN1CCOCC1 | > 100 µM (inactive) | > 100 | > 100 | > 100 |
| COc1cccc(-c2ccc(-c3noc(-c4ccccc4F)n3)c(OC)n2)c1 | 9.65 µM | > 100 | > 100 | > 12.5 |
| C=C(C)COc1ccc2c(C)c(C)c(=O)oc2c1OCC(=C)C | 79.2 µM (inactive) | > 100 | > 100 | > 100 |
| CCc1ccc(NC(=O)c2c(Cl)nc(C)c(Cl)c2C)cc1 | 7.1 µM | > 100 | > 100 | > 100 |
| Cn1c(SCC(=O)OC2CCCCC2)nnc1-c1ccc2c(c1)OCO2 | 7.93 µM | 30.5 | 70 | 34.9 |
| COc1cc(/C=C/C(=O)OCC(=O)Nc2ccc(Cl)cn2)ccc1O | 39.4 µM | > 100 | > 100 | > 100 |
| CCc1ccc2nc(/N=C(\N)NC(=O)c3ccccc3)nc(C)c2c1 | 1.02 µM | 22.4 | > 50 | > 100 |
| O=C(NC1CCCCCCC1)c1ccc(Br)cc1 | > 100 µM (inactive) | > 100 | > 100 | > 100 |
| c1ccc2nc(-c3nc4ccccc4o3)ccc2c1 | 43.9 µM (inactive) | > 100 | > 100 | > 50 |
| COc1ccc2c(c1)c(C(C)=O)c(C)n2-c1ccccc1 | 0.336 µM | > 100 | > 100 | 6.92 |
| c1ccc(OCc2nnc(-c3ccccc3)o2)cc1 | 1.4 µM | 80.4 | > 100 | > 100 |
| O=c1[nH]c(/C=C/c2cccc(Br)c2)nc2ccccc12 | > 100 µM (inactive) | > 100 | > 100 | > 100 |
| COCCNC(C(=O)Nc1ccc(C)cc1[N+](=O)[O-])c1ccccc1 (stereo unspecified) | 17.2 µM | 49.1 | > 100 | > 100 |
